Assay results published in patent US20070197540A1, “Pyrazolopyrimidines” (priority 2003, published 2007).
Where two headings read alike, the source gives them in different places.

Test: logP determination by HPLC (EEC Directive 79/831 Annex V. A8)
Format: physicochemical
Protocol: logP value is determined in accordance with EEC Directive 79/831 Annex V. A8 by HPLC (gradient method, acetonitrile/0.1% aqueous phosphoric acid)

[1] = HPLC, gradient method, acetonitrile/0.1% aqueous phosphoric acid, read-out: logP

chromatographic logP [1]	SMILES	also measured
5.7	CCC1COC(c2cnn3c(NC(C)C(C)(C)C)c(-c4ccc(F)cc4Cl)c(Cl)nc23)O1 (stereo not drawn) [Example 23]	
3.89	CC1CCN(c2c(-c3ccc(F)cc3Cl)c(Cl)nc3c(CO)cnn23)CC1 [Example 1, 3-hydroxymethyl-5-chloro-6-(2-chloro-4-fluorophenyl)-7-(4-methylpiperidino)pyrazolo[1,5-a]pyrimidine]	
	CC1CCN(c2c(-c3ccc(F)cc3Cl)c(Cl)nc3c(C=O)cnn23)CC1 [Example 541, 3-formyl-5-chloro-6-(2-chloro-4-fluorophenyl)-7-(4-methylpiperidino)pyrazolo[1,5-a]pyrimidine]	chromatographic logP (HPLC, gradient of acetonitrile/0.1% aqueous phosphoric acid, pH=2.3, read-out: log P(pH=2.3)): 4.53
	CC1CCN(c2c(-c3ccc(F)cc3Cl)c(Cl)nc3c(C#N)cnn23)CC1 [Example 543, 3-cyano-5-chloro-6-(2-chloro-4-fluorophenyl)-7-(4-methylpiperidino)pyrazolo[1,5-a]pyrimidine]	chromatographic logP (pH=2.3, read-out: log P(pH=2.3)): 4.88
	CC(Nc1c(-c2ccc(F)cc2Cl)c(Cl)nc2c(C=O)cnn12)C(C)(C)C (stereo not drawn) [Example 542, 3-formyl-5-chloro-6-(2-chloro-4-fluorophenyl)-7-(3,3-dimethylbut-2-ylamino)pyrazolo[1,5-a]pyrimidine]	chromatographic logP (HPLC (gradient method), per EEC Directive 79/831 Annex V. A8, two values, one per atropisomer, read-out: log P (atropisomers)): 4.47
5.09	COCc1cnn2c(N3CCC(C)CC3)c(-c3ccc(F)cc3Cl)c(Cl)nc12 [Example 2, 3-methoxymethyl-5-chloro-6-(2-chloro-4-fluorophenyl)-7-(4-methylpiperidno)pyrazolo[1,5-a]pyrimidine]	
